In assay [1] the target is Beta-2 adrenergic receptor (Homo sapiens, UniProt P07550). Description: beta2AR agonists driving receptor internalization, dose response, cell-based, FAP fluorogen, flow cytometry, cherry pick 1 (AID 588763). It counts as functional. In general terms: A flow cytometer gives signals particle by particle.
Another assay addresses T1, Leucine aminopeptidase (Plasmodium falciparum 3D7, UniProt Q8IL11).
T1 sequence (Q8IL11 whole entry): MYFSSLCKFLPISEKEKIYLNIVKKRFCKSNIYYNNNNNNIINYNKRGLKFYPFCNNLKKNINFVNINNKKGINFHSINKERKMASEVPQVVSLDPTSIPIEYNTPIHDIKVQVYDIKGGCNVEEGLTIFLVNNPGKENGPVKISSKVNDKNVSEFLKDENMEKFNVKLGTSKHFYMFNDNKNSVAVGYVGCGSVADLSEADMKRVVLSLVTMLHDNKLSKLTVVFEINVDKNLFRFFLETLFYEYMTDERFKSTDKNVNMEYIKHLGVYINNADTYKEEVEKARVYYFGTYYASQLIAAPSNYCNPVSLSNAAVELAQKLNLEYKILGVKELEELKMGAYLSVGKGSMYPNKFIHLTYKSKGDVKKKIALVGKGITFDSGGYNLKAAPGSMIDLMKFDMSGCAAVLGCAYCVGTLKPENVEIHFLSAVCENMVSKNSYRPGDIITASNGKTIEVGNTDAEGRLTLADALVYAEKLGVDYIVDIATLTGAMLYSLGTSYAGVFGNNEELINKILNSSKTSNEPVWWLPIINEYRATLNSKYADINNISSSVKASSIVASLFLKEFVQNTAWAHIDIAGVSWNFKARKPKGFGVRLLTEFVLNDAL
The experiment in a line: P. falciparum M17LAP inhibitors, primary screen, biochemical, fluorogenic H-Leu-NHMec substrate, 1536-well (AID 1619). The class given is functional.

The target of a further assay is Beta-galactosidase (Escherichia coli, UniProt Q8VNN2). Description: PubChem AID 485352. The class given is functional.
Beta-galactosidase, sequence (Q8VNN2 whole entry): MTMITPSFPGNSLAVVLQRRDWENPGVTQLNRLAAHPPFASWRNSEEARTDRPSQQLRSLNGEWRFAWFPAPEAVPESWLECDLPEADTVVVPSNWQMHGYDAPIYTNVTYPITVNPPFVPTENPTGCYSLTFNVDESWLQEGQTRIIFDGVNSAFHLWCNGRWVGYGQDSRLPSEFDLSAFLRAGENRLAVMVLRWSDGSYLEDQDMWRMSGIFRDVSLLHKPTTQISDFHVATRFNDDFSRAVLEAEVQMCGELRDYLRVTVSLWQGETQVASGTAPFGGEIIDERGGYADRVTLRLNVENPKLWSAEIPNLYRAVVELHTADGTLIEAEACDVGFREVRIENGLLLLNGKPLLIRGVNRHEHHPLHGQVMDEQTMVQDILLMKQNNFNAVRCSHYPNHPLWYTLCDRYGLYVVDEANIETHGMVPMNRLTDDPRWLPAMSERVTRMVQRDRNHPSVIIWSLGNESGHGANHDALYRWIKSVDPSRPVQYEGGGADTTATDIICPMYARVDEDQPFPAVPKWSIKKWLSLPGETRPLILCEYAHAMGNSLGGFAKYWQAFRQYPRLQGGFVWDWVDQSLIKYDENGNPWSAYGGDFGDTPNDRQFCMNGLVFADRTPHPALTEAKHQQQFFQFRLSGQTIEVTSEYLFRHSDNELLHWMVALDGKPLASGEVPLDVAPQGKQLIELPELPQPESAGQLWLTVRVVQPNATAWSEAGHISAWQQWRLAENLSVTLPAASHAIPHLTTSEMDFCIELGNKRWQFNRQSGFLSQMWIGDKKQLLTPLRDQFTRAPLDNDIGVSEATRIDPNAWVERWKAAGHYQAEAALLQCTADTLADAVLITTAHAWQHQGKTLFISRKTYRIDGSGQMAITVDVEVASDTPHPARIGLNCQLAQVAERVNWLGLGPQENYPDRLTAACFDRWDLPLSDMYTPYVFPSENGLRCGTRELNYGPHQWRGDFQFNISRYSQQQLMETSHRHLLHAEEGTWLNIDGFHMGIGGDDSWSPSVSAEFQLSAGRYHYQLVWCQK
Assay [2] in a line: inhibitors of intracellular T. cruzi replication, confirmation, NIH3T3 host cells, beta-gal luminescence (AID 2044).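 Further: intracellular parasites grown in NIH/3T3 mouse fibroblasts as host cells; luminescent beta-galactosidase reporter signal from transgenic T. cruzi replicating inside host cells; inhibitors lower the luminescence signal.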 The class given is functional, cell-based.
Assay [3] concerns the target Type-1 angiotensin II receptor (Homo sapiens, UniProt P30556). Description: AT1 receptor antagonists, dose response, selectivity assay for APJ receptor antagonist project, cell-based, uHTS hits (AID 463214).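 Further: antagonist potency against angiotensin II stimulated AT1 response.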 It counts as functional.
Assay [4] is described as follows: cytotoxicity toward NIH3T3 fibroblasts, dose response, counter-screen, cell-based, ATP luminescence, mouse fibroblasts (AID 2010).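 Further: cells exposed to compound for about 90 hours before reading.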 The class given is functional. (The purpose of a counterscreen is to sort out artefacts and off-target activity.)
Assay [5] has as its target T2, Short transient receptor potential channel 4 (Mus musculus, UniProt Q9QUQ5).
T2 sequence (Q9QUQ5 whole entry): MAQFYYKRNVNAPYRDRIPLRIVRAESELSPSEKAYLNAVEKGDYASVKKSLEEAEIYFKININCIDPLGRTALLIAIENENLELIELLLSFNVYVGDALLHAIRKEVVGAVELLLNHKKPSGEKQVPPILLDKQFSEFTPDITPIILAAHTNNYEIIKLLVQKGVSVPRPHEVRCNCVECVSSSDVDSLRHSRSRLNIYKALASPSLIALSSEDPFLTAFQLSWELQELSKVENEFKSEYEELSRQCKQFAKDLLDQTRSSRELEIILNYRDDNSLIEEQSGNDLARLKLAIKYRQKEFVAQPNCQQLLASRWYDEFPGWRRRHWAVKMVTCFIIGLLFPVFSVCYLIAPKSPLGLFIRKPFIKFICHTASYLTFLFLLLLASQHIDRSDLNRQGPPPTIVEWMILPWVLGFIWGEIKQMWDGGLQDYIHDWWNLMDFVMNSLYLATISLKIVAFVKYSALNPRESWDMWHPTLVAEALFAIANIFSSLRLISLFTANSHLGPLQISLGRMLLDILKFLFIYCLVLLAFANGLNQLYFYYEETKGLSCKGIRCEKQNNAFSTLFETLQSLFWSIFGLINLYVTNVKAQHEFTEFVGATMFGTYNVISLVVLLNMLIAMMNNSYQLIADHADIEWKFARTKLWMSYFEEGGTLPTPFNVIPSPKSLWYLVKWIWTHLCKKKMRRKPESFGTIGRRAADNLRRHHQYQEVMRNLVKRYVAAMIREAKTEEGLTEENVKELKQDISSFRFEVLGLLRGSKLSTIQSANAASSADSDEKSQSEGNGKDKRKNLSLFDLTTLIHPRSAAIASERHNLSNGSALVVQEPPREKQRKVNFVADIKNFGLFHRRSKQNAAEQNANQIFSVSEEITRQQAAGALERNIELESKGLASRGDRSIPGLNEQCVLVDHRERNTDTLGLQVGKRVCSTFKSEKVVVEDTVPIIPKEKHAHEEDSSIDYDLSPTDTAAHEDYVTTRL
The experiment in a line: mouse TRPC4 channel activators, dose response, cell-based, HEK293 TRPC4/mu-opioid, Fluo-4 calcium (AID 434937). It counts as functional.

Assay [6] relates to INS1. The experiment in a line: beta cell apoptosis inhibitors, cytokine rescue, dose response, luminescence, retest (AID 449756).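 Further: cell death triggered by IL-1 beta plus TNF-alpha plus IFN-gamma mixture; protective hits raise ATP signal compared with cytokine alone wells.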 It counts as functional, cell-based. The note with it: Rattus norvegicus.
Assay [7] is described as follows: inhibitors of firefly luciferase expression or activity, dose response, H4 neuroglioma cells, luminescence (AID 1990). It counts as functional, cell-based.
Assay [8] is described as follows: Luminescence Cell-Based Dose Response HTS to Identify Inhibitors of 5'UTR Stem-Loop Driven Prion Protein mRNA Translation in H4 Neuroglioblastoma Cells. [Related pubchem assays: 1827 (Project Summary), 1813 (Primary HTS)]. The class given is functional.
Assay [9] in a line: inhibitors of SNCA 5'UTR-driven reporter translation, confirmation, H4 neuroglioma cells, luminescence (AID 1988). The class given is functional, cell-based.
Assay [10] concerns the target T3, Microphthalmia-associated transcription factor (Homo sapiens, UniProt O75030).
T3 sequence (O75030 whole entry): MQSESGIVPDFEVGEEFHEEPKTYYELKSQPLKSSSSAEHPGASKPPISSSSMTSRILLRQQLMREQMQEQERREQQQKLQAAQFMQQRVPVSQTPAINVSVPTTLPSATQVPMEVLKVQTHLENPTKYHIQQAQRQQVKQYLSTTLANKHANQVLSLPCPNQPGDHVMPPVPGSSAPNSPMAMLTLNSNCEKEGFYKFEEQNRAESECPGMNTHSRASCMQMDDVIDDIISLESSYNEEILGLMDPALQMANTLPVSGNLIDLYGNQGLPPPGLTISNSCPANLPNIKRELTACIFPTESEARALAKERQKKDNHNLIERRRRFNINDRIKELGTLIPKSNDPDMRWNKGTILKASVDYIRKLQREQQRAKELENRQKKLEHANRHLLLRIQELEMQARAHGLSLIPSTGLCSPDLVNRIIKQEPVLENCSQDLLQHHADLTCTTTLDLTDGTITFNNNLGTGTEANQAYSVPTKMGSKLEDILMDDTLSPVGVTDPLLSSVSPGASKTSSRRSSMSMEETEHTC
Description: TRPM1 promoter luciferase signal decrease, dose response, MITF inhibitor project, cell-based, SK-MEL-5, cherry-picked, set 3 (AID 493073).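 Further: SK-MEL-5 melanoma cells with luciferase driven by the MITF target TRPM1 promoter.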 The class given is functional.

For assay [11], the target named is Apoptotic protease-activating factor 1 (Homo sapiens, UniProt O14727). The class given is functional.
Apoptotic protease-activating factor 1, sequence (O14727 whole entry): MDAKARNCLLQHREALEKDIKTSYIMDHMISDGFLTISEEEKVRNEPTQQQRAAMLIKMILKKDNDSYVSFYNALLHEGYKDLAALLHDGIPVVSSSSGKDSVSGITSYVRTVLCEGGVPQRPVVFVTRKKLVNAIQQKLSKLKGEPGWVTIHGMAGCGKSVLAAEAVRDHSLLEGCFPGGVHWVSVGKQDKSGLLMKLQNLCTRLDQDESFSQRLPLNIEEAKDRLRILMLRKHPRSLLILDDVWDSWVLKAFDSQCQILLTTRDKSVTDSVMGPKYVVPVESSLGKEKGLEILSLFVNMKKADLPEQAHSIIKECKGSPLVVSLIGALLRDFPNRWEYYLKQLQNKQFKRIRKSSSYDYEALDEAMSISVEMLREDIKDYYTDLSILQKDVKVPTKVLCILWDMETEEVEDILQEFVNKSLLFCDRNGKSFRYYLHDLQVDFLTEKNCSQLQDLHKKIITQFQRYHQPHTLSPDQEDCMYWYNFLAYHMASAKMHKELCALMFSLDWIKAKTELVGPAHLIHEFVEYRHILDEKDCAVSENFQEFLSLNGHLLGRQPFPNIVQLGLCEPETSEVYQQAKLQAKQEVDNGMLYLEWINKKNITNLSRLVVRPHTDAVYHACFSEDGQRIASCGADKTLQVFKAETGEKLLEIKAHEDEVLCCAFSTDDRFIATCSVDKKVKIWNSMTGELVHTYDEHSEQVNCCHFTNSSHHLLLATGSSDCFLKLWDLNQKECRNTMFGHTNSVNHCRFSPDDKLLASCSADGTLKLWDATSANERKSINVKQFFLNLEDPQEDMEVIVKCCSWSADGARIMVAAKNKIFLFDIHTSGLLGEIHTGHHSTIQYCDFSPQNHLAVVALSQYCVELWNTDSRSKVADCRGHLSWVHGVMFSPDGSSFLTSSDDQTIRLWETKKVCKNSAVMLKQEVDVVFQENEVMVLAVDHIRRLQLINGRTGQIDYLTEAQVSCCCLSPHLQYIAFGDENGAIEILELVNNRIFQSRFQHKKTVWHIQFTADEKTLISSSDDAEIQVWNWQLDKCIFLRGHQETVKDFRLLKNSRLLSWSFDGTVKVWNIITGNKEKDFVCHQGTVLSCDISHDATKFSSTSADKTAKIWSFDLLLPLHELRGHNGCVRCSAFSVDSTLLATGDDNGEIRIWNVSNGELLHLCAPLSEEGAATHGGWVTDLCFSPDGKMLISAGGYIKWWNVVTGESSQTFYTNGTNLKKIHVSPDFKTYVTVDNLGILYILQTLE
Assay [12] is described as follows: inhibitors of cytokine-induced nitrite release, dose response, cell-based, Griess absorbance, INS-1E, dry powder, set 3 (AID 488870). It counts as functional. The note with it: Rattus norvegicus. A general note: Griess reagent forms a coloured azo dye with nitrite.
For assay [13], the system named is INS1. The experiment in a line: protection from cytokine-driven beta-cell apoptosis, dose response, JC-1 fluorescence, INS-1E, dry powder, set 2 (AID 488867). The note with it: Rattus norvegicus. The class given is functional, cell-based.
Assay [14] concerns INS1. The experiment in a line: inhibitors of cytokine-induced nitrite release, dose response, cell-based, Griess absorbance, INS-1E, dry powder, set 2 (AID 488868). The note with it: Rattus norvegicus. It counts as functional.
In another assay the target is Paired box protein Pax-8 (Homo sapiens, UniProt Q06710). Description: inhibitors of PAX8-driven TPO luciferase reporter, dose response, RMG-I cells, cherry-pick (AID 687027).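 Further: luciferase reporter driven by Pax8 target thyroperoxidase promoter measured by SteadyGlo luminescence.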 The class given is functional, cell-based.
Paired box protein Pax-8, sequence (Q06710 whole entry): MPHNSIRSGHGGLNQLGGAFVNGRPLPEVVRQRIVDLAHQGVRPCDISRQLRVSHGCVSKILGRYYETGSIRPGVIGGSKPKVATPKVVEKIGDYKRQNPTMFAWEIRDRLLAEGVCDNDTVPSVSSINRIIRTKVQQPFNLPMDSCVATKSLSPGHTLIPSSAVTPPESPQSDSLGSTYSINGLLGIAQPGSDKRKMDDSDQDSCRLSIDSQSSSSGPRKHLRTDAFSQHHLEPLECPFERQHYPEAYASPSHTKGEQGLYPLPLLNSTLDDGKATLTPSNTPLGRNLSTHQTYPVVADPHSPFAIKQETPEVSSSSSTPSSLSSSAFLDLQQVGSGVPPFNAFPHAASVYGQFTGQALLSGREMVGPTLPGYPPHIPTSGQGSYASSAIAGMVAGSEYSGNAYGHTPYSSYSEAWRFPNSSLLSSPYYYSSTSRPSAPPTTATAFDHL
In assay [15] the test system is Candida albicans. The experiment in a line: growth inhibition of resistant C. albicans, dose response, CaCi-8 strain, fluconazole, dry powder, set 4 (AID 488950). It counts as functional, organism-based.
The subject of assay [16] is Candida albicans. The experiment in a line: fluconazole resistance reversal in C. albicans, dose response, CaCi-2 strain, Alamar Blue, dry powder, set 4 (AID 488943). It counts as functional, organism-based.
In assay [17] the test system is Candida albicans. Description: growth inhibition of resistant C. albicans, dose response, CaCi-8, fluconazole, Alamar Blue, dry powder (AID 488807). The class given is functional, organism-based.
In assay [18] the test system is Candida albicans. The experiment in a line: Candida albicans growth inhibition, agent alone, dose response, counter-screen for reversing antifungal drug resistance, CaCi-2 strain, no fluconazole, dry powder, set 4 (AID 488932). It counts as functional, organism-based.
In the next assay the test system is NIH3T3. Description: cytotoxicity in NIH-3T3 fibroblasts, dose response, cytotoxicity control for antifungal drug resistance project, cell-based, Alamar Blue, fluconazole, dry powder (AID 488809). As to conditions: Mus musculus. The class given is functional.
The next assay has as its target Hexokinase-1 (Homo sapiens, UniProt P19367). The experiment in a line: SAR analysis of small molecule inhibitors of hexokinase domain containing I (HKDC1) in the hexokinase 1 selectivity assay. [Related pubchem assays (depositor defined):AID493160, AID493190]. The class given is functional.
Another assay has as its target T4, Hexokinase HKDC1 (Homo sapiens, UniProt Q2TB90).
T4 sequence (Q2TB90 whole entry): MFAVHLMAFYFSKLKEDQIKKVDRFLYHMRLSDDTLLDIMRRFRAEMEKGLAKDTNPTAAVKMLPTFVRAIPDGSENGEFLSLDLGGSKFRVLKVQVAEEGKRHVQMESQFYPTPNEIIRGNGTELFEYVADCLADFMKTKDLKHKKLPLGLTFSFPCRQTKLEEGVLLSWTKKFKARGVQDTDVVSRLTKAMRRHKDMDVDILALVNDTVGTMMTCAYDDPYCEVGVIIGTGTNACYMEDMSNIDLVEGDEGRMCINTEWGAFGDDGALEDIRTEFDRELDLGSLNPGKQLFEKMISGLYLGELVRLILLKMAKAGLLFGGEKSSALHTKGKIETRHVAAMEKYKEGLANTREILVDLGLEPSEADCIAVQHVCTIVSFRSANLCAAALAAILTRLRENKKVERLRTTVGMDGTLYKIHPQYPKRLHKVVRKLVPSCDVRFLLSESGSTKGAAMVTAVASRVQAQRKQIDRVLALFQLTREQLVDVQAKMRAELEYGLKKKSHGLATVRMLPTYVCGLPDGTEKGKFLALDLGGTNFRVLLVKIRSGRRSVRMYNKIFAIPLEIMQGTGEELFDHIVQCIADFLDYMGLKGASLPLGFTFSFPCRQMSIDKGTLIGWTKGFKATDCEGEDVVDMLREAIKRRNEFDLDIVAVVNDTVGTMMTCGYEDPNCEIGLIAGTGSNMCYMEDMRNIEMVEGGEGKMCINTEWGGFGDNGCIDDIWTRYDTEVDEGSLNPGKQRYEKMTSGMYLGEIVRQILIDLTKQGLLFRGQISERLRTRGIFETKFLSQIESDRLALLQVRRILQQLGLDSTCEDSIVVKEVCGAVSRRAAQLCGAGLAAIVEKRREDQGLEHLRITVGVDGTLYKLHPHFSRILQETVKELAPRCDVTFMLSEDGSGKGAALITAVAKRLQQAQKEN
The experiment in a line: SAR analysis of small molecule inhibitors of hexokinase domain containing I (HKDC1). [Related pubchem assays (depositor defined):AID493160, AID493190]. The class given is functional.

The results in this text go back to ChEMBL document CHEMBL1201862, “PubChem BioAssay data set” (2004).

Calls of active or inactive are those of the source. Bounds are passed on as bounds.

Usually EC50 stands for the concentration giving half of the maximal effect. As usually defined, the IC50 is the concentration that inhibits the measured activity by half. The term AC50 denotes the concentration at which the activity in the assay is half-maximal.

Type-1 angiotensin II receptor, sequence (P30556 whole entry): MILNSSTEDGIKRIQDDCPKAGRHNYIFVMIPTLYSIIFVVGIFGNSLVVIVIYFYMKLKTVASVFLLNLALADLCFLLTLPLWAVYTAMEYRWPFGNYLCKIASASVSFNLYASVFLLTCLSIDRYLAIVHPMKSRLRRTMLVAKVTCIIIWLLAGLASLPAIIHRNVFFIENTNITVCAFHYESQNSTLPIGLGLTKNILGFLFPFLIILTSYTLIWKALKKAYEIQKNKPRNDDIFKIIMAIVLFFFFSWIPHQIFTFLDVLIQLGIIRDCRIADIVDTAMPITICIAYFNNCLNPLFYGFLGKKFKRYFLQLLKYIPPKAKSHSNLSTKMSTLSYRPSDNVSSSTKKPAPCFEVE
Hexokinase-1, sequence (P19367 whole entry, the tested form may be a part): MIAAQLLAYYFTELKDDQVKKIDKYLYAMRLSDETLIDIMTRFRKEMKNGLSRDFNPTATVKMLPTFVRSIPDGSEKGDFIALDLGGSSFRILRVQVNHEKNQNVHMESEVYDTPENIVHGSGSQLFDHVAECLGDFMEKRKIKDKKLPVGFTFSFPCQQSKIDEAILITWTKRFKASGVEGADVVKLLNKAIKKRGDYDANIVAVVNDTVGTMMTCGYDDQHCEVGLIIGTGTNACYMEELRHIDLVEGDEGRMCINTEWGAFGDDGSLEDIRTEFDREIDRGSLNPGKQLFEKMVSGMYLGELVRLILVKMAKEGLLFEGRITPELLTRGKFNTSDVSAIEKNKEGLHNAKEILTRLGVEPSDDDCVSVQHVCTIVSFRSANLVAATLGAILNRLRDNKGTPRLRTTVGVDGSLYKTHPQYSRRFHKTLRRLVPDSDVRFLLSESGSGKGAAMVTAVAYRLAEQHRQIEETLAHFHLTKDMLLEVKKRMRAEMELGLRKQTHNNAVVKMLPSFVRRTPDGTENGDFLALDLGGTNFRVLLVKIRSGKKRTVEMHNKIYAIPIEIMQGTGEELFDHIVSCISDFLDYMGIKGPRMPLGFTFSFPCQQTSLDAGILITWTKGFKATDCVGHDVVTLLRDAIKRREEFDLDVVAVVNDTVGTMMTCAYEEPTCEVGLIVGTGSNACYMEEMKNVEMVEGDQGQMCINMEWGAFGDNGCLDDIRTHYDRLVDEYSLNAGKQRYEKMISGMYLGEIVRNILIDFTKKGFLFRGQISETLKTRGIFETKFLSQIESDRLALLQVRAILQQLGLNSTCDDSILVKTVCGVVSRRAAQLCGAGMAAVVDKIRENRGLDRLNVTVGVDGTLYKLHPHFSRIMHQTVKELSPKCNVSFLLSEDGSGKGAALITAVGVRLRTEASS
Beta-2 adrenergic receptor, sequence (P07550 whole entry): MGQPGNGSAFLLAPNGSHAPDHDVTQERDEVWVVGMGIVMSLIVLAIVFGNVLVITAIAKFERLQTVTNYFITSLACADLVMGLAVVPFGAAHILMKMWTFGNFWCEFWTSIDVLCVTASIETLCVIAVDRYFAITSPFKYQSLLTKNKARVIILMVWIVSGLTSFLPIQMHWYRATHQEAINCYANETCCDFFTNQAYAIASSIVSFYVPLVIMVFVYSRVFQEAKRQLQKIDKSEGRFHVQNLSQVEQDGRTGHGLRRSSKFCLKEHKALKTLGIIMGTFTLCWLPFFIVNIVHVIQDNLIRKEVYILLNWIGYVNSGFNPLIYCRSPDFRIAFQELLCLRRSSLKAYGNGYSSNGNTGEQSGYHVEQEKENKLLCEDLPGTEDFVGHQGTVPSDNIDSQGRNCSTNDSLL

Take `Nc1cccc(C#Cc2ccc3c(=O)c4ccccc4oc3c2)c1`: in assay [1], the EC50 was 0.245 µM (active).
For `CC(C)(C)c1cc(CCC(=O)NNC(=S)NC(=O)c2ccccc2)cc(C(C)(C)C)c1O`, the IC50 was 32.2 µM (active) on Leucine aminopeptidase and 35.5 µM (not active) in [3]. In addition, the EC50 on Beta-galactosidase was > 40 µM (inactive); in [2] it was 0.382 µM (active); in assay [4], 15.7 µM (active); in assay [5], 3.35 µM (active). In addition, the concentration at half-maximal activity (AC50) in the assay on INS1 [6] was 3.99 µM (active).
Consider `CC(=O)Nc1ccc(S(=O)(=O)NC2=C(N3CCN(C)CC3)C(=O)c3ccccc3C2=O)cc1`, for which the EC50 in [7] is 15.6 µM (active); in [8], > 120 µM (not active); in assay [9], 11.1 µM (active). Also, the figures for the concentration at half-maximal activity (AC50) (in assay [10]; with INS1 [6]) were 3.65 µM (active) and 3.99 µM (active), respectively. In assay [11], the concentration for half-maximal inhibition (IC50) was 29.7 µM (active).
With `Cc1ccc(S(=O)(=O)N(C)C[C@H]2Oc3c(NC(=O)Nc4cccc5ccccc45)cccc3C(=O)N([C@@H](C)CO)C[C@@H]2C)cc1`, the AC50 in assay [12] is > 195 µM (inactive); in the assay with INS1 [13], 38.8 µM (active); in the assay with INS1 [14], 45.6 µM (active); at Paired box protein Pax-8 it was 5.94 µM (active).
On to `O=C(c1csc2ccccc12)N1CCN(c2ccnc3cc(Cl)ccc23)CC1`, for which the AC50 in the assay on Candida albicans [15] was 1.69 µM (active); with Candida albicans [16], 0.946 µM (active); with Candida albicans [17], 2.72 µM (active); in the assay on Candida albicans [18], 106 µM (active); with NIH3T3, 4.47 µM (active).
On to `COc1ccc(/C=C/c2nc3ccccc3c(=O)n2Cc2ccccc2)cc1OC`, for which the IC50 on Hexokinase-1 and at Hexokinase HKDC1 was > 80 µM (inactive) in each case.
